Consider 37 compounds from patent publication US9326973B2, “Hepatitis C virus inhibitors” (priority 2012, dated 2016).

This experiment has as its system HCV replicon, genotype-1a variant with glutamine 30 changed to glutamate in the NS5A protein. As to the kind of experiment: microbe, parasite or virus in culture. It counts as cell-based, HCV genotype 1a. The conditions noted are these: HCV replicon genotype 1a Q30E (Q→E) variant; test compound titrated with an NS5A-targeting compound (BMS-790052 fixed at 200 nM); ranking of synergist activity. The procedure, abridged:
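Synergy was assessed by combining several fixed amounts of an NS5A-targeting compound with a titration of the second compound of interest.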
In general terms: Replicon systems follow genome replication, usually without infectious particles.

`CC(C)(Br)C(=O)N[C@H](c1nc(-c2ccc(-c3ccc(-c4c[nH]c([C@@H](NC(=O)C(C)(C)Br)C(C)(C)C)n4)cc3)cc2)c[nH]1)C(C)(C)C` [Compound W-149]: the “Fold-Synergistic 1a (Q30E)” value was above 100 fold. With `CC(C)(C)[C@H](NC(=O)C(C)(C)n1cnc(C(F)(F)F)c1)c1nc(-c2ccc(-c3ccc(-c4c[nH]c([C@@H](NC(=O)C(C)(C)n5cnc(C(F)(F)F)c5)C(C)(C)C)n4)cc3)cc2)c[nH]1` [Compound W-150], the “Fold-Synergistic 1a (Q30E)” value is on record as above 100 fold. Next, `CC(C)(C(=O)N[C@H](c1nc(-c2ccc(-c3ccc(-c4c[nH]c([C@@H](NC(=O)C(C)(C)C(=O)N5CC[C@@H](O)C5)C(C)(C)C)n4)cc3)cc2)c[nH]1)C(C)(C)C)C(=O)N1CC[C@@H](O)C1` [Compound W-151]: above 10 fold. For the compound `CC(C)(C(=O)N[C@H](c1nc(-c2ccc(-c3ccc(-c4c[nH]c([C@@H](NC(=O)C(C)(C)C(=O)N5CC[C@H](O)C5)C(C)(C)C)n4)cc3)cc2)c[nH]1)C(C)(C)C)C(=O)N1CC[C@H](O)C1` [Compound W-152], the “Fold-Synergistic 1a (Q30E)” value is given as above 100 fold. As for `CC(C)(C(=O)N[C@H](c1nc(-c2ccc(-c3ccc(-c4c[nH]c([C@@H](NC(=O)C(C)(C)C(=O)N5CC6CC6C5)C(C)(C)C)n4)cc3)cc2)c[nH]1)C(C)(C)C)C(=O)N1CC2CC2C1` (stereo partly shown) [Compound W-153], the “Fold-Synergistic 1a (Q30E)” value is recorded as above 100 fold. Next, `C[C@@H]1CN(C(=O)C(C)(C)C(=O)N[C@H](c2nc(-c3ccc(-c4ccc(-c5c[nH]c([C@@H](NC(=O)C(C)(C)C(=O)N6C[C@@H](C)O[C@@H](C)C6)C(C)(C)C)n5)cc4)cc3)c[nH]2)C(C)(C)C)C[C@H](C)O1` [Compound W-154]: above 100 fold; `CC(C)(C(=O)N[C@H](c1nc(-c2ccc(-c3ccc(-c4c[nH]c([C@@H](NC(=O)C(C)(C)C(=O)NC56CC(C5)C6)C(C)(C)C)n4)cc3)cc2)c[nH]1)C(C)(C)C)C(=O)NC12CC(C1)C2` [Compound W-155]: above 100 fold. Regarding `CCN(CC1CC1)C(=O)C(C)(C)C(=O)N[C@H](c1nc(-c2ccc(-c3ccc(-c4c[nH]c([C@@H](NC(=O)C(C)(C)C(=O)N(CC)CC5CC5)C(C)(C)C)n4)cc3)cc2)c[nH]1)C(C)(C)C` [Compound W-156], the “Fold-Synergistic 1a (Q30E)” value is on record as above 100 fold. As for `CCN(CCOC)C(=O)C(C)(C)C(=O)N[C@H](c1nc(-c2ccc(-c3ccc(-c4c[nH]c([C@@H](NC(=O)C(C)(C)C(=O)N(CC)CCOC)C(C)(C)C)n4)cc3)cc2)c[nH]1)C(C)(C)C` [Compound W-157], the “Fold-Synergistic 1a (Q30E)” value was above 10 fold.

In the case of `CCN(CCC#N)C(=O)C(C)(C)C(=O)N[C@H](c1nc(-c2ccc(-c3ccc(-c4c[nH]c([C@@H](NC(=O)C(C)(C)C(=O)N(CC)CCC#N)C(C)(C)C)n4)cc3)cc2)c[nH]1)C(C)(C)C` [Compound W-158], the “Fold-Synergistic 1a (Q30E)” value was above 100 fold. In the case of `C[C@@H]1CN(C(C)(C)C(=O)N[C@H](c2nc(-c3ccc(-c4ccc(-c5c[nH]c([C@@H](NC(=O)C(C)(C)N6C[C@@H](C)O[C@@H](C)C6)C(C)(C)C)n5)cc4)cc3)c[nH]2)C(C)(C)C)C[C@H](C)O1` [Compound W-160], the “Fold-Synergistic 1a (Q30E)” value was above 10 fold.

As to `CC(C)[C@H](NC(=O)C(C)(C)N1C[C@@H](C)O[C@@H](C)C1)c1nc(-c2ccc(-c3ccc(-c4c[nH]c([C@@H](NC(=O)C(C)(C)N5C[C@@H](C)O[C@@H](C)C5)C(C)C)n4)cc3)cc2)c[nH]1` [Compound W-161], the “Fold-Synergistic 1a (Q30E)” value is above 100 fold.

Regarding `C[C@@H]1CN(C(C)(C)C(=O)N[C@H](c2nc(-c3ccc(-c4ccc(-c5c[nH]c([C@@H](NC(=O)C(C)(C)N6C[C@@H](C)O[C@@H](C)C6)C6(C)CC6)n5)cc4)cc3)c[nH]2)C2(C)CC2)C[C@H](C)O1` [Compound W-162], the “Fold-Synergistic 1a (Q30E)” value is recorded as above 100 fold. For the compound `CC1(C)CCCC(C)(C(=O)N[C@H](c2nc(-c3ccc(-c4ccc(-c5c[nH]c([C@@H](NC(=O)C6(C)CCCC(C)(C)O6)C(C)(C)C)n5)cc4)cc3)c[nH]2)C(C)(C)C)O1` (stereo partly shown) [Compound W-165], the “Fold-Synergistic 1a (Q30E)” value is recorded as above 100 fold. Next, `CC1(C)CCCC(C)(C(=O)N[C@H](c2nc(-c3ccc(-c4ccc(-c5c[nH]c([C@@H](NC(=O)C6(C)CCCC(C)(C)O6)C(C)(C)C)n5)cc4)cc3)c[nH]2)C(C)(C)C)O1` (stereo partly shown) [Compound W-167]: above 100 fold; `CC1(C)CCCC(C)(C(=O)N[C@H](c2nc(-c3ccc(-c4ccc(-c5c[nH]c([C@@H](NC(=O)C6(C)CCCC(C)(C)O6)C(C)(C)C)n5)cc4)cc3)c[nH]2)C(C)(C)C)O1` (stereo partly shown) [Compound W-168]: above 10 fold.

On to `CC(C)(C)[C@H](NC(=O)[C@H]1C[C@@](C)(O)C1)c1nc(-c2ccc(-c3ccc(-c4c[nH]c([C@@H](NC(=O)[C@H]5C[C@@](C)(O)C5)C(C)(C)C)n4)cc3)cc2)c[nH]1` [Compound W-169], for which the “Fold-Synergistic 1a (Q30E)” value is recorded as above 100 fold. As for `CC(C)(C)[C@H](NC(=O)[C@H]1C[C@](C)(O)C1)c1nc(-c2ccc(-c3ccc(-c4c[nH]c([C@@H](NC(=O)[C@H]5C[C@](C)(O)C5)C(C)(C)C)n4)cc3)cc2)c[nH]1` [Compound W-170], the “Fold-Synergistic 1a (Q30E)” value is reported as above 100 fold. As for `CC(C)(C)[C@H](NC(=O)C1CC(=O)C1)c1nc(-c2ccc(-c3ccc(-c4c[nH]c([C@@H](NC(=O)C5CC(=O)C5)C(C)(C)C)n4)cc3)cc2)c[nH]1` [Compound W-171], the figure is above 100 fold; as for `CC(C)[C@H](NC(=O)C1CC(=O)C1)c1nc(-c2ccc(-c3ccc(-c4c[nH]c([C@@H](NC(=O)C5CC(=O)C5)C(C)C)n4)cc3)cc2)c[nH]1` [Compound W-172], above 10 fold; as for `CC(C)(C)[C@H](NC(=O)C1CCC(=O)CC1)c1nc(-c2ccc(-c3ccc(-c4c[nH]c([C@@H](NC(=O)C5CCC(=O)CC5)C(C)(C)C)n4)cc3)cc2)c[nH]1` [Compound W-173], above 100 fold. In the case of `CC1([C@H](NC(=O)C2CC(=O)C2)c2nc(-c3ccc(-c4ccc(-c5c[nH]c([C@@H](NC(=O)C6CC(=O)C6)C6(C)CC6)n5)cc4)cc3)c[nH]2)CC1` [Compound W-174], the “Fold-Synergistic 1a (Q30E)” value was above 100 fold.

For the compound `CC(C)(C)[C@H](NC(=O)[C@H]1CC[C@@](C)(O)CC1)c1nc(-c2ccc(-c3ccc(-c4c[nH]c([C@@H](NC(=O)[C@H]5CC[C@@](C)(O)CC5)C(C)(C)C)n4)cc3)cc2)c[nH]1` [Compound W-175], the “Fold-Synergistic 1a (Q30E)” value is above 100 fold. In the case of `CC(C)[C@H](NC(=O)C1CC2(C1)OCCO2)c1nc(-c2ccc(-c3ccc(-c4c[nH]c([C@@H](NC(=O)C5CC6(C5)OCCO6)C(C)C)n4)cc3)cc2)c[nH]1` (stereo partly shown) [Compound W-176], the “Fold-Synergistic 1a (Q30E)” value is above 100 fold. On to `CC(C)(C)[C@H](NC(=O)C1CC2(C1)OCCO2)c1nc(-c2ccc(-c3ccc(-c4c[nH]c([C@@H](NC(=O)C5CC6(C5)OCCO6)C(C)(C)C)n4)cc3)cc2)c[nH]1` (stereo partly shown) [Compound W-178], for which the “Fold-Synergistic 1a (Q30E)” value is recorded as above 100 fold. For `CC(C)(C)[C@H](Nc1nc(C(F)(F)F)c(Cl)s1)c1nc(-c2ccc(-c3ccc(-c4c[nH]c([C@@H](Nc5nc(C(F)(F)F)c(Cl)s5)C(C)(C)C)n4)cc3)cc2)c[nH]1` [Compound W-180], the “Fold-Synergistic 1a (Q30E)” value is reported as below 10 fold. Turning to `CC(C)[C@H](NC(=O)[C@@H]1C[C@@H](F)CN1C(=O)OC(C)(C)C)c1nc(-c2ccc(-c3ccc(-c4c[nH]c([C@@H](NC(=O)[C@@H]5C[C@@H](F)CN5C(=O)OC(C)(C)C)C(C)C)n4)cc3)cc2)c[nH]1` [Compound W-181], the “Fold-Synergistic 1a (Q30E)” value was above 100 fold. In the case of `CC(C)(C)OC(=O)N1C[C@H](F)C[C@H]1C(=O)N[C@H](c1nc(-c2ccc(-c3ccc(-c4c[nH]c([C@@H](NC(=O)[C@@H]5C[C@@H](F)CN5C(=O)OC(C)(C)C)C5(C)CC5)n4)cc3)cc2)c[nH]1)C1(C)CC1` [Compound W-182], the “Fold-Synergistic 1a (Q30E)” value is given as above 100 fold.

In the case of `CC(C)(C)[C@H](Nc1nc2ccccc2s1)c1nc(-c2ccc(-c3ccc(-c4c[nH]c([C@@H](Nc5nc6ccccc6s5)C(C)(C)C)n4)cc3)cc2)c[nH]1` [Compound W-183], the “Fold-Synergistic 1a (Q30E)” value was above 10 fold. In the case of `C[C@H]1CCN(C(=O)C(=O)N2CCC(F)(F)CC2)C1c1nc(-c2ccc(-c3ccc(-c4c[nH]c([C@@H]5[C@@H](C)CCN5C(=O)C(=O)N5CCC(F)(F)CC5)n4)cc3)cc2)c[nH]1` (stereo partly shown) [Compound W-186], the “Fold-Synergistic 1a (Q30E)” value was above 100 fold.

In the case of `C[C@H]1CCN(C(=O)C(=O)N2CCC(F)(F)CC2)C1c1nc(-c2ccc(-c3ccc(-c4c[nH]c([C@@H]5[C@@H](C)CCN5C(=O)C(=O)N5CCC(F)(F)CC5)n4)cc3)cc2)c[nH]1` (stereo partly shown) [Compound W-187], the “Fold-Synergistic 1a (Q30E)” value was above 100 fold. Next, `C[C@H]1CCN(C(=O)C2CCC(F)(F)CC2)[C@@H]1c1nc(-c2ccc(-c3ccc(-c4c[nH]c([C@@H]5[C@@H](C)CCN5C(=O)C5CCC(F)(F)CC5)n4)cc3)cc2)c[nH]1` [Compound W-188]: above 10 fold.

Consider `COc1cc2ccccc2c(C(=O)N2CCCC2c2ncc(-c3ccc(-c4ccc(-c5cnc(C(NC(=O)C(C)(C)C)C(C)C)[nH]5)cc4)cc3)[nH]2)n1` (stereo not shown) [Compound Y-13], for which the “Fold-Synergistic 1a (Q30E)” value is on record as above 100 fold. Turning to `Cc1ccc(S(=O)(=O)N[C@H](c2ncc(-c3ccc(-c4ccc(-c5cnc([C@@H](NS(=O)(=O)c6ccc(C)cc6)C(C)C)[nH]5)cc4)cc3)[nH]2)C(C)C)cc1` [Compound Y-58], the “Fold-Synergistic 1a (Q30E)” value is recorded as above 100 fold. Turning to `CC(C)(C)[C@H](NC(=O)C1C2C3CCC(C3)C12)c1nc(-c2ccc(-c3ccc(-c4c[nH]c([C@@H](NC(=O)C5C6C7CCC(C7)C56)C(C)(C)C)n4)cc3)cc2)c[nH]1` (stereo partly shown) [Compound Y-62], the “Fold-Synergistic 1a (Q30E)” value is listed as above 100 fold. Take `COC(C)(C)C(=O)N[C@H](c1nc(-c2ccc(-c3ccc(-c4c[nH]c([C@@H](NC(=O)C(C)(C)OC)C5(C)CC5)n4)cc3)cc2)c[nH]1)C1(C)CC1` [Compound Y-63]: the “Fold-Synergistic 1a (Q30E)” value is recorded as above 100 fold. Next, `CC(C)(OCC(F)F)C(=O)N[C@H](c1nc(-c2ccc(-c3ccc(-c4c[nH]c([C@@H](NC(=O)C(C)(C)OCC(F)F)C5(C)CC5)n4)cc3)cc2)c[nH]1)C1(C)CC1` [Compound Y-64]: above 100 fold.
